Assay results from PubChem BioAssay AID292 (DTP/NCI, 2004).
“And” between values parts separate entries of the source, which are not always exact repeats. Equal values may be shown once. Inconclusive results and toxic doses are left out.

Tested on: B6C3F1 mice, ip Sarcoma M5076, median survival T/C
Test: NCI In Vivo Anticancer Drug Screen. Data for tumor model Sarcoma M5076 (intraperitoneal) in B6C3F1 mice
Conditions: endpoint: median survival time, higher = longer survival
How it was run: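 Mice carrying the transplanted tumour received compound treatment. Survival was recorded, and each value is the treated-group measurement divided by that of the vehicle-dosed control group.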

[1] = dose: 12.5 mg/kg/injection, schedule: Q04DX004 (ip), vehicle: saline with Tween-80
[2] = dose: 25.0 mg/kg/injection, schedule: Q04DX004 (ip), vehicle: saline with Tween-80
[3] = dose: 37.5 mg/kg/injection, schedule: Q04DX004 (ip), vehicle: saline
[4] = dose: 75.0 mg/kg/injection, schedule: Q04DX004 (ip), vehicle: saline
[5] = dose: 150.0 mg/kg/injection, schedule: Q04DX004 (ip), vehicle: saline
[6] = dose: 12.5 mg/kg/injection, schedule: Q04DX004 (ip), vehicle: Klucel (hydroxypropylcellulose) (HPC)
[7] = dose: 25.0 mg/kg/injection, schedule: Q04DX004 (ip), vehicle: Klucel (hydroxypropylcellulose) (HPC)
[8] = dose: 50.0 mg/kg/injection, schedule: Q04DX004 (ip), vehicle: Klucel (hydroxypropylcellulose) (HPC)
[9] = dose: 100.0 mg/kg/injection, schedule: Q04DX004 (ip), vehicle: Klucel (hydroxypropylcellulose) (HPC)
[10] = dose: 200.0 mg/kg/injection, schedule: Q04DX004 (ip), vehicle: Klucel (hydroxypropylcellulose) (HPC)
[11] = dose: 400.0 mg/kg/injection, schedule: Q04DX004 (ip), vehicle: Klucel (hydroxypropylcellulose) (HPC)
[12] = dose: 25.0 mg/kg/injection, schedule: Q04DX004 (ip), vehicle: saline
[13] = dose: 50.0 mg/kg/injection, schedule: Q04DX004 (ip), vehicle: saline
[14] = dose: 100.0 mg/kg/injection, schedule: Q04DX004 (ip), vehicle: saline
[15] = dose: 200.0 mg/kg/injection, schedule: Q04DX004 (ip), vehicle: saline
[16] = dose: 400.0 mg/kg/injection, schedule: Q04DX004 (ip), vehicle: saline
[17] = dose: 100.0 mg/kg/injection, schedule: Q04DX004 (ip), vehicle: saline with Tween-80
[18] = dose: 200.0 mg/kg/injection, schedule: Q04DX004 (ip), vehicle: saline with Tween-80
[19] = dose: 400.0 mg/kg/injection, schedule: Q04DX004 (ip), vehicle: saline with Tween-80
[20] = dose: 75.0 mg/kg/injection, schedule: Q04DX004 (ip), vehicle: Klucel (hydroxypropylcellulose) (HPC)
[21] = dose: 150.0 mg/kg/injection, schedule: Q04DX004 (ip), vehicle: Klucel (hydroxypropylcellulose) (HPC)
[22] = dose: 300.0 mg/kg/injection, schedule: Q04DX004 (ip), vehicle: Klucel (hydroxypropylcellulose) (HPC)
[23] = dose: 600.0 mg/kg/injection, schedule: Q04DX004 (ip), vehicle: Klucel (hydroxypropylcellulose) (HPC)
[24] = dose: 12.5 mg/kg/injection, schedule: Q04DX004 (ip), vehicle: saline
[25] = dose: 50.0 mg/kg/injection, schedule: Q04DX004 (ip), vehicle: saline with Tween-80
[26] = dose: 800.0 mg/kg/injection, schedule: Q04DX004 (ip), vehicle: saline with Tween-80

C=C(C)[C@H]1Cc2c(ccc3c2O[C@@H]2COc4cc(OC)c(OC)cc4[C@@H]2C3=O)O1
T/C (dose: 6.25 mg/kg/injection, schedule: Q04DX004 (ip), vehicle: saline with Tween-80): 98 % of control | T/C [1]: 95 % of control | T/C [2]: 97 % of control

CC(=O)N1CCCN(C)/C1=N/[N+](=O)[O-]
T/C [3]: 100 % of control | T/C [4]: 104 % of control | T/C [5]: 104 % of control | T/C (dose: 300.0 mg/kg/injection, schedule: Q04DX004 (ip), vehicle: saline): 100 % of control

CN(C)N=Nc1ccccc1
T/C [6]: 113 % of control | T/C [7]: 159 % of control | T/C [8]: 187 % of control | T/C [9]: 156 % of control

CC1(C)C(=O)NC(=O)c2ccccc21
T/C [7]: 109 % of control

NC(N)=NS(=O)(=O)c1ccc(NCc2c3ccccc3nc3ccccc23)cc1
T/C [8]: 159 % of control | T/C [9]: 151 % of control | T/C [10]: 178 % of control | T/C [11]: 158 % of control and 207 % of control | T/C (dose: 800.0 mg/kg/injection, schedule: Q04DX004 (ip), vehicle: Klucel (hydroxypropylcellulose) (HPC)): 167 % of control and 194 % of control

Nc1ccn([C@@H](C=O)C[C@@H](C=O)CO)c(=O)n1
T/C [12]: 99 % of control | T/C [13]: 99 % of control | T/C [14]: 103 % of control | T/C [15]: 108 % of control | T/C [16]: 118 % of control

CN(C)C=O
T/C (dose: 10.0 mg/kg/injection, schedule: Q04DX004 (ip), vehicle: saline): 104 % of control | T/C (dose: 20.0 mg/kg/injection, schedule: Q04DX004 (ip), vehicle: saline): 111 % of control | T/C (dose: 40.0 mg/kg/injection, schedule: Q04DX004 (ip), vehicle: saline): 104 % of control | T/C (dose: 80.0 mg/kg/injection, schedule: Q04DX004 (ip), vehicle: saline): 100 % of control | T/C [14]: 103 % of control | T/C (dose: 160.0 mg/kg/injection, schedule: Q04DX004 (ip), vehicle: saline): 104 % of control | T/C [15]: 107 % of control | T/C [16]: 100 % of control | T/C (dose: 800.0 mg/kg/injection, schedule: Q04DX004 (ip), vehicle: saline): 107 % of control | T/C (dose: 1600.0 mg/kg/injection, schedule: Q04DX004 (ip), vehicle: saline): 108 % of control

Nc1nncs1
T/C [17]: 111 % of control | T/C (dose: 100.0 mg/kg/injection, schedule: Q04DX005 (ip), vehicle: saline with Tween-80): 112 % of control | T/C (dose: 100.0 mg/kg/injection, schedule: Q04DX005 (ip), vehicle: saline): 114 % of control and 116 % of control | T/C [18]: 112 % of control | T/C (dose: 200.0 mg/kg/injection, schedule: Q04DX005 (ip), vehicle: saline with Tween-80): 112 % of control | T/C (dose: 200.0 mg/kg/injection, schedule: Q04DX005 (ip), vehicle: saline): 109 % of control and 121 % of control | T/C [19]: 121 % of control | T/C (dose: 400.0 mg/kg/injection, schedule: Q04DX005 (ip), vehicle: saline): 95 % of control | T/C (dose: 800.0 mg/kg/injection, schedule: Q04DX005 (ip), vehicle: saline): 151 % of control

COc1ccc2c(c1)-c1nn(CCCN(C)C)c3ccc([N+](=O)[O-])c(c13)N2
T/C (dose: 6.25 mg/kg/injection, schedule: Q04DX004 (ip), vehicle: water): 118 % of control | T/C (dose: 12.5 mg/kg/injection, schedule: Q04DX004 (ip), vehicle: water): 120 % of control | T/C (dose: 50.0 mg/kg/injection, schedule: Q04DX004 (ip), vehicle: water): 156 % of control and 170 % of control | T/C (dose: 100.0 mg/kg/injection, schedule: Q04DX004 (ip), vehicle: water): 96 % of control

Cn1c2ccccc2c2oc(CO)cc(=O)c21
T/C (dose: 37.5 mg/kg/injection, schedule: Q04DX004 (ip), vehicle: Klucel (hydroxypropylcellulose) (HPC)): 92 % of control | T/C [20]: 91 % of control | T/C [21]: 91 % of control | T/C [22]: 87 % of control | T/C [23]: 91 % of control

O=S1(=O)CS(=O)(=O)OCCO1
T/C (dose: 6.25 mg/kg/injection, schedule: Q01DX009 (oral), vehicle: Klucel (hydroxypropylcellulose) (HPC)): 160 % of control | T/C (dose: 6.25 mg/kg/injection, schedule: Q04DX004 (ip), vehicle: Klucel (hydroxypropylcellulose) (HPC)): 165 % of control | T/C (dose: 12.5 mg/kg/injection, schedule: Q01DX001 (oral), vehicle: Klucel (hydroxypropylcellulose) (HPC)): 109 % of control | T/C (dose: 12.5 mg/kg/injection, schedule: Q01DX009 (oral), vehicle: Klucel (hydroxypropylcellulose) (HPC)): 192 % of control | T/C [6]: 180 % of control | T/C (dose: 25.0 mg/kg/injection, schedule: Q01DX009 (oral), vehicle: Klucel (hydroxypropylcellulose) (HPC)): 300 % of control | T/C [7]: 267 % of control and 290 % of control | T/C (dose: 50.0 mg/kg/injection, schedule: Q01DX009 (oral), vehicle: Klucel (hydroxypropylcellulose) (HPC)): 300 % of control | T/C [8]: 267 % of control and 300 % of control | T/C (dose: 100.0 mg/kg/injection, schedule: Q01DX001 (oral), vehicle: Klucel (hydroxypropylcellulose) (HPC)): 300 % of control

O=C(Nc1cccc(NC(=O)c2nn[nH]n2)n1)c1nn[nH]n1
T/C [8]: 99 % of control | T/C [9]: 102 % of control | T/C [10]: 94 % of control

COc1cc(C2=NCCc3cc4c(cc32)OCO4)cc(OC)c1OC
T/C [24]: 106 % of control | T/C [12]: 106 % of control | T/C [13]: 106 % of control | T/C [14]: 110 % of control

O=C(Nc1ccccc1CCl)Nc1ccccc1CCl
T/C [25]: 107 % of control | T/C [17]: 102 % of control and 110 % of control | T/C [18]: 109 % of control and 114 % of control | T/C [26]: 123 % of control

COc1cc(NCc2ccc3nc(N)nc(N)c3c2C)cc(OC)c1OC (tested in a mixture with another compound)
T/C (dose: 10.0 mg/kg/injection, schedule: Q04DX004 (ip), vehicle: water): 108 % of control | T/C (dose: 20.0 mg/kg/injection, schedule: Q04DX004 (ip), vehicle: water): 112 % of control | T/C (dose: 40.0 mg/kg/injection, schedule: Q04DX004 (ip), vehicle: water): 117 % of control | T/C (dose: 80.0 mg/kg/injection, schedule: Q04DX004 (ip), vehicle: water): 115 % of control

CCN(CC)CCOC(=O)c1cc2cc3cc(C(=O)OCCN(CC)CC)c(=O)oc3c(C)c2oc1=O
T/C [3]: 100 % of control | T/C [4]: 92 % of control | T/C [5]: 93 % of control

Cc1cc2c(C(C)C)c(O)c(O)c(C=NCCO)c2c(O)c1-c1c(C)cc2c(C(C)C)c(O)c(O)c(C=NCCO)c2c1O
T/C [25]: 116 % of control | T/C (dose: 86.4 mg/kg/injection, schedule: Q04DX004 (ip), vehicle: saline with Tween-80): 120 % of control | T/C [17]: 121 % of control | T/C [18]: 123 % of control | T/C (dose: 240.0 mg/kg/injection, schedule: Q04DX004 (ip), vehicle: saline with Tween-80): 150 % of control | T/C [19]: 92 % of control and 210 % of control | T/C [26]: 180 % of control

COc1cccc(-n2cc[n+](C)c2/C=N/O)c1
T/C [1]: 108 % of control | T/C [2]: 101 % of control | T/C [25]: 108 % of control | T/C [17]: 100 % of control

O=C(Nc1ccccc1)C1C(=O)C(=O)N(c2ccccc2)C1=O (stereo not given)
T/C [7]: 99 % of control | T/C [8]: 90 % of control | T/C [9]: 92 % of control | T/C [10]: 95 % of control | T/C [11]: 95 % of control

O=C[C@@H](CO)O[C@H](C=O)c1c[nH]c(=O)[nH]c1=O
T/C [24]: 111 % of control and 121 % of control | T/C (dose: 18.0 mg/kg/injection, schedule: Q04DX004 (ip), vehicle: saline): 110 % of control | T/C [12]: 114 % of control and 123 % of control | T/C (dose: 30.0 mg/kg/injection, schedule: Q04DX004 (ip), vehicle: saline): 118 % of control | T/C [13]: 123 % of control | T/C [14]: 165 % of control | T/C (dose: 138.8 mg/kg/injection, schedule: Q04DX004 (ip), vehicle: saline): 153 % of control

O=c1[nH]cnc2n[nH]nc12
T/C [20]: 104 % of control | T/C [21]: 94 % of control | T/C [22]: 97 % of control | T/C [23]: 95 % of control
